We go through 24 compounds from PubChem BioAssay (NCI).

Structures are written as SMILES.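 Test compounds were applied to cells in 96-well plates for 48 hours at 5 doses. Definition used: TGI = concentration required for complete inhibition of growth.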 Where only a bound is given, the exact number is not on record here.

Some test systems named below: XF 498 CNS; M19-MEL melanoma; HOP-18 NSCLC; LXFL 529 NSCLC; DMS 273 small cell lung; SNB-78 CNS; DLD-1 colon; DMS 114 small cell lung; RXF-631 renal.
Holding throughout (experiment): NCI-60 cell line screen, 48 h

Take `C#CC(C)(C)OCCCCOc1cc(O)c2c(=O)c3ccccc3n(C)c2c1`: the TGI with XF 498 CNS, with M19-MEL melanoma, with HOP-18 NSCLC, in the test on LXFL 529 NSCLC, with DMS 273 small cell lung and in the test with SNB-78 CNS was > 100 µM each time. For the same compound, the TGI in the test on DLD-1 colon and in the test with DMS 114 small cell lung was > 100 µM in each case.

For the compound `CC12C3CC4C5CC(C(C53)[C@@H]1NCc1ccccc1)C42` (stereo partly specified), the TGI in the test with XF 498 CNS, in the test on HOP-18 NSCLC, with LXFL 529 NSCLC, in the test with RXF-631 renal, in the test on DMS 273 small cell lung and with SNB-78 CNS was > 100 µM each time. The TGI in the test with DLD-1 colon and in the test on DMS 114 small cell lung was > 100 µM each time.

On to `C=CCCCN1CCCCC1=S`, for which the TGI in the test on XF 498 CNS, in the test with M19-MEL melanoma, in the test on HOP-18 NSCLC, with RXF-631 renal, with DMS 273 small cell lung and in the test with DLD-1 colon was > 100 µM each time. Further, the TGI in the test on DMS 114 small cell lung was > 100 µM.

Consider `CN1N=C2c3ccccc3OC(c3ccccc3)[C@H]2C1c1ccccc1` (stereo partly specified), for which the TGI with XF 498 CNS, in the test with M19-MEL melanoma, in the test with HOP-18 NSCLC, in the test with LXFL 529 NSCLC, in the test on DMS 273 small cell lung and with SNB-78 CNS was > 100 µM each time. For the same compound, the TGI in the test on DLD-1 colon and in the test with DMS 114 small cell lung was > 100 µM throughout.

As to `N#Cc1ccccc1NC(=O)C(=O)C(C(=O)c1ccncc1)C1OC(=O)c2ccccc21` (stereo unspecified), the TGI in the test on XF 498 CNS, in the test on M19-MEL melanoma, with HOP-18 NSCLC, with LXFL 529 NSCLC, in the test on RXF-631 renal and in the test with SNB-78 CNS was > 100 µM throughout. Besides, the TGI with DLD-1 colon and with DMS 114 small cell lung was > 100 µM each time.

Regarding `CCc1ccc(Cc2ccc(CC)c(NC(=O)C(=O)C3NC(=S)NC3=O)c2CC)c(CC)c1NC(=O)C(=O)C1NC(=S)NC1=O` (stereo unspecified), the TGI in the test with M19-MEL melanoma, with LXFL 529 NSCLC, in the test on RXF-631 renal, in the test on DMS 273 small cell lung, with SNB-78 CNS and with DLD-1 colon was > 100 µM each time.

With `CSc1ccc2c(cc1=O)C(NC(=O)c1ccccc1)CCc1cc(O)c(O)c(O)c1-2` (stereo unspecified), the TGI was 65 µM in the test with M19-MEL melanoma; > 100 µM with HOP-18 NSCLC; 60.8 µM in the test with LXFL 529 NSCLC; > 100 µM with DMS 273 small cell lung; > 100 µM in the test on SNB-78 CNS; 32.7 µM with DLD-1 colon. Moreover, the TGI in the test on DMS 114 small cell lung amounted to 79.7 µM.

For `Cc1cccc(N=Cc2ccc(N(CCC#N)S(=O)(=O)c3ccccc3)cc2C)c1`, the TGI with XF 498 CNS, with M19-MEL melanoma, in the test with LXFL 529 NSCLC, in the test on RXF-631 renal, in the test with DMS 273 small cell lung and with DLD-1 colon was > 100 µM in each case. In the test with DMS 114 small cell lung, the TGI was > 100 µM.

For `O=C(O[C@H]1[C@@H]2C=CO[C@@H](OC3OC(CO)C(O)C(O)C3O)[C@@H]2[C@@]2(CO)O[C@@H]12)c1ccc(O)c(O)c1` (stereo partly specified), the TGI in the test on XF 498 CNS, with M19-MEL melanoma, in the test with LXFL 529 NSCLC, in the test on DMS 273 small cell lung, in the test with SNB-78 CNS and in the test with DLD-1 colon was > 100 µM in each case.

Turning to `COc1ccc(-c2cc(=O)c3cc(Cl)ccc3[nH]2)cc1`, the TGI with XF 498 CNS, in the test with M19-MEL melanoma, in the test with HOP-18 NSCLC, with LXFL 529 NSCLC, in the test with RXF-631 renal and with SNB-78 CNS was > 100 µM each time. In addition, the TGI in the test with DLD-1 colon and in the test on DMS 114 small cell lung was > 100 µM in each case.

For `Cn1ccc(=NS(=O)(=O)c2ccccc2)cc1`, the TGI in the test on XF 498 CNS, with M19-MEL melanoma, with HOP-18 NSCLC, in the test on LXFL 529 NSCLC, with RXF-631 renal and in the test with DMS 273 small cell lung was > 100 µM in each case. For the same compound, the TGI in the test with SNB-78 CNS, in the test on DLD-1 colon and with DMS 114 small cell lung was > 100 µM in each case.

With `CO/N=C(/C(=O)Nc1c[n+](CC(=O)[O-])cs1)c1csc(N)n1`, the TGI with XF 498 CNS, in the test on HOP-18 NSCLC, with LXFL 529 NSCLC, in the test with DMS 273 small cell lung, with SNB-78 CNS and in the test with DLD-1 colon was > 100 µM throughout.

`CSc1nc(NC2OCC(OC(C)=O)C(OC(C)=O)C2OC(C)=O)c2c(n1)OCC2=O` (stereo unspecified): the TGI with M19-MEL melanoma, in the test with LXFL 529 NSCLC, in the test with DMS 273 small cell lung, in the test with SNB-78 CNS, with DLD-1 colon and in the test with DMS 114 small cell lung was > 100 µM in each case.

For the compound `COc1cccc(C=O)c1[O-].COc1cccc(C=O)c1[O-].[Zn+2]`, the TGI is 98.6 µM in the test on M19-MEL melanoma; > 100 µM with HOP-18 NSCLC; > 100 µM in the test with LXFL 529 NSCLC; > 100 µM in the test on DMS 273 small cell lung; > 100 µM in the test with SNB-78 CNS; > 100 µM in the test with DLD-1 colon. Moreover, the TGI with DMS 114 small cell lung is > 100 µM.

Turning to `O=C1NC(=S)NC(=O)C1=CC1CC1`, the TGI in the test with XF 498 CNS, in the test with M19-MEL melanoma, in the test on HOP-18 NSCLC, in the test on LXFL 529 NSCLC, in the test with DMS 273 small cell lung and with SNB-78 CNS was > 100 µM in each case. The TGI with DLD-1 colon and in the test on DMS 114 small cell lung was > 100 µM in each case.

Turning to `Cc1nc(-n2nc(-c3ccccc3)cc2-c2ccccc2)sc1C(=O)/C=C/c1ccc([N+](=O)[O-])cc1`, the TGI in the test on M19-MEL melanoma was 98.9 µM; in the test with HOP-18 NSCLC, > 100 µM; with RXF-631 renal, > 100 µM; in the test on DMS 273 small cell lung, > 100 µM; in the test on SNB-78 CNS, > 100 µM; in the test with DLD-1 colon, 36.2 µM.

For `Cc1cc2c(=O)c(C)n[nH]c2c(C#N)c1C`, the TGI in the test on XF 498 CNS, in the test with M19-MEL melanoma, in the test on HOP-18 NSCLC, with LXFL 529 NSCLC, in the test with RXF-631 renal and with DMS 273 small cell lung was > 100 µM throughout. Also, the TGI in the test with DLD-1 colon was > 100 µM.

Turning to `O=c1[nH]nc(CNc2ccc(Cl)cc2Cl)c2ccccc12`, the TGI with M19-MEL melanoma was > 100 µM; with HOP-18 NSCLC it was 54.4 µM; in the test with LXFL 529 NSCLC, 40.1 µM; in the test on RXF-631 renal, > 100 µM; in the test on DMS 273 small cell lung, 72.9 µM; in the test with SNB-78 CNS, > 100 µM. Further, the TGI in the test with DLD-1 colon was determined as 90.6 µM; in the test with DMS 114 small cell lung, 37.1 µM.

Take `Nc1ccn(CCOC(c2ccccc2)P(=O)(O)O)c(=O)n1` (stereo unspecified): the TGI in the test on XF 498 CNS, in the test with M19-MEL melanoma, with LXFL 529 NSCLC, in the test on DMS 273 small cell lung, with SNB-78 CNS and with DLD-1 colon was > 100 µM each time. In the test with DMS 114 small cell lung, the TGI is > 100 µM.

Regarding `CCCCCCCC(=O)OC[C@H](C[As](=O)(O)O)OC(=O)CCCCCCC`, the TGI turned out to be 27.2 µM with M19-MEL melanoma; 49.2 µM in the test on HOP-18 NSCLC; 21.7 µM in the test on LXFL 529 NSCLC; 24 µM with DMS 273 small cell lung; 44.3 µM in the test with SNB-78 CNS; 28 µM in the test on DLD-1 colon. In the test on DMS 114 small cell lung, this compound registered a TGI of 19.5 µM.

Turning to `CS(=O)(=O)NNS(=O)(=O)c1ccc(F)cc1`, the TGI in the test on M19-MEL melanoma, in the test with LXFL 529 NSCLC, in the test on RXF-631 renal, in the test with DMS 273 small cell lung, with DLD-1 colon and in the test with DMS 114 small cell lung was > 100 µM in each case.

Regarding `CC(C)(C)OC(=O)N1CC(C)(C)N2C(=O)C3(CCCO3)C12` (stereo unspecified), the TGI in the test on M19-MEL melanoma, with HOP-18 NSCLC, with LXFL 529 NSCLC, with DMS 273 small cell lung, in the test on SNB-78 CNS and in the test on DLD-1 colon was > 100 µM each time. In addition, the TGI in the test on DMS 114 small cell lung was > 100 µM.

`CN/N=C(\C)C(CN1CCCCC1)C(C1=C(O)c2ccccc2OC1)c1ccccc1` (stereo unspecified): the TGI in the test on XF 498 CNS, in the test on M19-MEL melanoma, in the test on LXFL 529 NSCLC, with RXF-631 renal, with DMS 273 small cell lung and in the test with SNB-78 CNS was > 100 µM in each case. For the same compound, the TGI in the test on DMS 114 small cell lung was > 100 µM.

On to `CCc1cccc(C(C)CC)c1NC(=O)C(=O)Cc1nc2ccccc2o1` (stereo unspecified), for which the TGI in the test with XF 498 CNS, in the test on M19-MEL melanoma, with LXFL 529 NSCLC, with DMS 273 small cell lung, in the test with SNB-78 CNS and in the test on DLD-1 colon was > 50 µM each time. The TGI with DMS 114 small cell lung was > 50 µM.
